This is an account of results in patent publication US8987195B2 (priority 2012, dated 2015).

Assay [1] has as its target HCV NS3/4A protease genotype 1b (Hepatitis C virus genotype 1b, UniProt P26663). Kind of assay: HCV NS3/4A protease time-resolved fluorescence (TRF) assay, Ki against genotype 1b. It counts as biochemical. The note with it: IC50 [gt-1b] (nM), NS3/4A genotype 1b, enzyme 0.2 nM. A digest of the protocol: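 NS3/4A enzyme was preincubated 30 min with inhibitor in 50 mM HEPES pH 7.5, 150 mM NaCl, 15% glycerol, 0.15% Triton X-100, 10 mM DTT, 0.1% PEG 8000; 25 nM europium TRF peptide substrate added, 2.5 h at room temperature. Enzyme: 0.2 nM (1b), 0.4 nM (A156T), 0.025 nM (3a). Ki from IC50 via Cheng-Prusoff.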

The test system of the next assay is HCV genotype 1b replicon. Kind of assay: HCV replicon assay, genotype 1b replicon EC50. To be noted: Hepatitis C virus, genotype 1b replicon, read-out: EC50 [gt-1b]. The format is cell-based, Hepatitis C virus. In a few lines: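 Replicon cells (Neo^r, some luciferase:Neo^r fusion); G418 removed at plating; compound dilution series, 24-48 h. Readout: RNA by 32P-probe hybridization/protection or TaqMan, normalized to cyclophilin A RNA, or luciferase. EC50 vs DMSO control, 4-parameter fit.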

Read-outs that look alike come from different tables or passages of the source.

The compound `Cc1nc2ccc(Cl)cc2c2c1O[C@]1(CC2)C[C@H]2C(=O)N[C@]3(C(=O)NS(=O)(=O)C4(C)CC4)C[C@H]3/C=C\CCCCC[C@H](NC(=O)OC(C)(C)C)C(=O)N2C1` [Example 39, tert-Butyl ((2R,6S,13aS,14aR,16aS,Z)-9′-chloro-5′-methyl-14a-(((1-methylcyclopropyl)sulfonyl)carbamoyl)-5,16-dioxo-1′,2′,3,5,6,7,8,9,10,11,13a,14,14a,15,16,16a-hexadecahydro-1H-spiro[cyclopropa[e]pyrrolo[1,2-a][1,4]diazacyclopentadecine-2,3′-pyrano[2,3-c]quuinolin]-6-yl)carbamate] registered an IC50 in assay [1] of 0.004 nM. Also, the EC50 in the assay with HCV genotype 1b replicon was found to be 0.59 nM.

As to `Cc1nc2ccc(Cl)cc2c2c1O[C@]1(CC2)C[C@H]2C(=O)N[C@]3(C(=O)NS(=O)(=O)C4(C)CC4)C[C@H]3/C=C\CCCCC[C@H](NC(=O)OCC(C)(C)C)C(=O)N2C1` [Example 40, Neopentyl((2R,6S,13aS,14aR,16aS,Z)-9′-chloro-5′-methyl-14a-(((1-methylcyclopropyl)sulfonyl)carbamoyl)-5,16-dioxo-1′,2′,3,5,6,7,8,9,10,11,13a,14,14a,15,16,16a-hexadecahydro-1H-spiro[cyclopropa[e]pyrrolo[1,2-a][1,4]diazacyclopentadecine-2,3′-pyrano[2,3-c]quinolin]-6-yl)carbamate], in assay [1] (K+ salt), the IC50 is 0.005 nM. Further, the 50% effective concentration (EC50) with HCV genotype 1b replicon (K+ salt) is 5.33 nM.

In the case of `Cc1nc2ccc(Cl)cc2c2c1O[C@]1(CC2)C[C@H]2C(=O)N[C@]3(C(=O)NS(=O)(=O)C4(C)CC4)C[C@H]3/C=C\CCCCC[C@H](NC(=O)OCC3(C)CC3)C(=O)N2C1` [Example 41], the IC50 in assay [1] (K+ salt) came to 0.007 nM. In addition, the EC50 in the assay with HCV genotype 1b replicon (GETYPE1B|GT1B, K+ salt) was found to be 16.2 nM.

For `Cc1ccc2nc(C)c3c(c2c1)CC[C@]1(C[C@H]2C(=O)NC4(C(=O)NS(=O)(=O)C5(C)CC5)C[C@H]4/C=C\CCCCC[C@H](NC(=O)OC(C)(C)C)C(=O)N2C1)O3` (stereo partly drawn) [Example 42, tert-Butyl (1aR,3aS,3′R,9S,16aS,Z)-5′,9′-dimethyl-1a-(1-methylcyclopropylsulfonylcarbamoyl)-3,8-dioxo-1a,1′,2,2′,3,3a,4,6,8,9,10,11,12,13,14,16a-hexadecahydro-1H -spiro[cyclopropa[e]pyrrolo[1,2-a][1,4]diazacyclopentadecine-5,3′-pyrano[2,3-c]quinoline]-9-ylcarbamate], the IC50 in assay [1] was found to be 0.008 nM. The EC50 in the assay on HCV genotype 1b replicon is 2.59 nM.

In assay [1], `Cc1nc2ccc(F)cc2c2c1O[C@]1(CC2)C[C@H]2C(=O)N[C@]3(C(=O)NS(=O)(=O)C4(C)CC4)C[C@H]3/C=C\CCCCC[C@H](NC(=O)OC(C)(C)C)C(=O)N2C1` [Example 43, tert-Butyl (1aR,3aS,3′R,9S,16aS,Z)-9′-fluoro-5′-methyl-1a-(1-methylcyclopropylsulfonylcarbamoyl)-3,8-dioxo-1a,1′,2,2′,3,3a,4,6,8,9,10,11,12,13,14,16a-hexadecahydro-1H-spiro[cyclopropa[e]pyrrolo[1,2-a][1,4]diazacyclopentadecine-5,3′-pyrano[2,3-c]quinoline]-9-ylcarbamate] gave an IC50 of 0.005 nM. Further, in the assay with HCV genotype 1b replicon, the EC50 was 1.25 nM.

`Cc1nc2c(C(F)(F)F)cccc2c2c1O[C@]1(CC2)C[C@H]2C(=O)N[C@]3(C(=O)NS(=O)(=O)C4(C)CC4)C[C@H]3/C=C\CCCCC[C@H](NC(=O)OC(C)(C)C)C(=O)N2C1` [Example 44, tert-Butyl (1aR,3aS,3′R,9S,16aS,Z)-5′-methyl-1a-(1-methylcyclopropylsulfonylcarbamoyl)-3,8-dioxo-7′-(trifluoromethyl)-1a,1′,2,2′,3,3a,4,6,8,9,10,11,12,13,14,16a-hexadecahydro-1H-spiro[cyclopropa[e]pyrrolo[1,2-a][1,4]diazacyclopentadecine-5,3′-pyrano[2,3-c]quinoline]-9-ylcarbamate] showed an IC50 in assay [1] of 0.104 nM. Also, the EC50 with HCV genotype 1b replicon was 1.6 nM.

`Cc1nc2c(F)cccc2c2c1O[C@]1(CC2)C[C@H]2C(=O)NC3(C(=O)NS(=O)(=O)C4(C)CC4)C[C@H]3/C=C\CCCCC[C@H](NC(=O)OC(C)(C)C)C(=O)N2C1` (stereo partly drawn) [Example 45, tert-Butyl (1aR,3aS,3′R,9S,16aS,Z)-7′-fluoro-5′-methyl-1a-(1-methylcyclopropylsulfonylcarbamoyl)-3,8-dioxo-1a,1′,2,2′,3,3a,4,6,8,9,10,11,12,13,14,16a-hexadecahydro-1H-spiro[cyclopropa[e]pyrrolo[1,2-a][1,4]diazacyclopentadecine-5,3′-pyrano[2,3-c]quinoline]-9-ylcarbamate]: in assay [1], the IC50 is 0.011 nM. The EC50 in the assay with HCV genotype 1b replicon came out at 1.1 nM.

Consider `COc1ccc2nc(C3CCC3)c3c(c2c1)CC[C@]1(C[C@H]2C(=O)NC4(C(=O)NS(=O)(=O)C5(C)CC5)C[C@H]4/C=C\CCCCC[C@H](NC(=O)OC(C)(C)C)C(=O)N2C1)O3` (stereo partly drawn) [Example 46, tert-Butyl (1aR,3aS,3′R,9S,16aS,Z)-5′-cyclobutyl-9′-methoxy-1a-(1-methylcyclopropylsulfonylcarbamoyl)-3,8-dioxo-1a,1′,2,2′,3,3a,4,6,8,9,10,11,12,13,14,16a-hexadecahydro-1H-spiro[cyclopropa[e]pyrrolo[1,2-a][1,4]diazacyclopentadecine-5,3′-pyrano[2,3-c]quinoline]-9-ylcarbamate], for which the IC50 in assay [1] (K+ salt) is 0.02 nM. Further, the EC50 in the assay on HCV genotype 1b replicon (K+ salt) turned out to be 0.4 nM.

Turning to `Cc1nc2ccccc2c2c1O[C@]1(CC2)C[C@H]2C(=O)N[C@]3(C(=O)NS(=O)(=O)C4(C)CC4)C[C@H]3/C=C\CCCCC[C@H](NC(=O)OC(C)(C)C(F)(F)F)C(=O)N2C1` [Example 47], the IC50 in assay [1] was determined as 0.011 nM. The EC50 in the assay with HCV genotype 1b replicon (GETYPE1B|GT1B) amounted to 3.72 nM.

The compound `COc1ccc2nc(CC(F)(F)F)c3c(c2c1)CC[C@]1(C[C@H]2C(=O)N[C@]4(C(=O)NS(=O)(=O)C5(C)CC5)C[C@H]4/C=C\CCCCC[C@H](NC(=O)OCC(C)(C)C)C(=O)N2C1)O3` [Example 48, Neopentyl((2R,6S,13aS,14aR,16aS,Z)-9′-methoxy-14a-(((1-methylcyclopropyl)sulfonyl)carbamoyl)-5,16-dioxo-5′-(2,2,2-trifluoroethyl)-1′,2′,3,5,6,7,8,9,10,11, 13a,14,14a,15,16,16a-hexadecahydro-1H-spiro[cyclopropa[e]pyrrolo[1,2-a][1,4]diazacyclopentadecine-2,3′-pyrano[2,3-c]quinolin]-6-yl)carbamate] showed an IC50 in assay [1] of 0.006 nM. Also, in the assay on HCV genotype 1b replicon, the EC50 amounted to 1.1 nM.

In the case of `COCCCOc1ccc2nc(C(F)(F)F)c3c(c2c1)CC[C@]1(C[C@H]2C(=O)N[C@]4(C(=O)NS(=O)(=O)C5(C)CC5)C[C@H]4/C=C\CCCCC[C@H](NC(=O)OC(C)(C)C)C(=O)N2C1)O3` [Example 51, tert-Butyl ((2R,6S,13aS,14aR,16aS,Z)-9′-(3-methoxypropoxy)-14a-(((1-methylcyclopropyl)sulfonyl)carbamoyl)-5,16-dioxo-5′-(trifluoromethyl)-1′,2′,3,5,6,7,8,9,10,11,13a, 14,14a,15,16,16a-hexadecahydro-1H-spiro[cyclopropa[e]pyrrolo[1,2-a][1,4]diazacyclopentadecine-2,3′-pyrano[2,3-c]quinolin]-6-yl)carbamate], the IC50 in assay [1] (K+ salt) was determined as 0.011 nM. Further, in the assay on HCV genotype 1b replicon (K+ salt), the EC50 was determined as 0.246 nM.
